Tests used:
d-U937 cells = assay: Accumulation of β catenin in d-U937 cells (assay m); type: cell-based, human; conditions: percentage relative to Reference Compound at 1 μg/mL
How it was run: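 PMA-differentiated (100 ng/mL, 48–72 hr) human U937 macrophage-type cells treated with test compound or vehicle for 18 hr. β-catenin measured by in-cell ELISA (anti-β-catenin, HRP secondary, TMB, OD450–655). Signal corrected for cell number by dividing by crystal violet OD595.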

[1] = target: p38 MAPKα isoform (MAPK14) (Homo sapiens (Human), UniProt Q16539); assay: p38 MAPKα enzyme inhibition (FRET, Z-LYTE, Method 2); type: biochemical
How it was run: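 Z-LYTE FRET: p38 MAPKα (80 ng/mL for Method 1, 200 ng/mL for Method 2, pre-dilution) preincubated 2 hr RT with compound (4–0.004 μg/mL solutions), activity read via MAPKAP-K2 phosphorylation after 1 hr RT and 1 hr protease development. Coumarin/fluorescein ratio gives phosphorylation; % inhibition versus uninhibited control, IC50 from concentration-response curve.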

PBMCs [2] = assay: IFN gamma release in CD3/CD28 stimulated PBMC cells (assay c); type: cell-based; conditions: Homo sapiens, read-out: IC50 Values for Inhibition of Cytokine Release, PBMCs IFNγ
How it was run: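 Healthy-donor PBMCs (density-gradient isolated) stimulated on plates pre-coated with anti-CD3 (0.3 μg/mL) and anti-CD28 (3 μg/mL), with compound, for 3 days under normal culture conditions. IL-2 and IFN gamma in supernatants measured by sandwich ELISA; IC50 from dose-response curve.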

PBMCs [3] = assay: LPS-induced IL-8 release in PBMC cells (assay b); type: cell-based, human; conditions: Homo sapiens, PBMC; LPS-stimulated PBMCs; read-out: IC50 Values for Inhibition of Cytokine Release, PBMCs IL-8
How it was run: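 Human PBMCs from healthy donors, isolated by density gradient, were pretreated with compound for 2 h and then stimulated with 1 ng/mL LPS (E. coli 0111:B4) for 24 h at 37° C, 5% CO2. Supernatant IL-8 and TNFα were measured by sandwich ELISA, and IC50 was taken from the dose-response curve.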

GSK 3α = GSK 3α (Homo sapiens (Human), UniProt P49840); assay: GSK 3α enzyme inhibition (FRET, Z-LYTE, Method 2); type: biochemical; conditions: read-out: IC50 Values for Enzyme Inhibition, GSK3α
How it was run: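 Recombinant human GSK3α was preincubated with compound (stocks 4, 0.4, 0.04 or 0.004 μg/mL) at RT, 2 hr for Method 1 and 105 min for Method 2. FRET peptide (8 μM stock) and ATP (40 μM stock) were added for 1 hr, then protease development for 1 hr. IC50 was taken from concentration–response curves.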

Sequence of p38 MAPKα isoform (MAPK14) (Q16539 whole entry, canonical isoform): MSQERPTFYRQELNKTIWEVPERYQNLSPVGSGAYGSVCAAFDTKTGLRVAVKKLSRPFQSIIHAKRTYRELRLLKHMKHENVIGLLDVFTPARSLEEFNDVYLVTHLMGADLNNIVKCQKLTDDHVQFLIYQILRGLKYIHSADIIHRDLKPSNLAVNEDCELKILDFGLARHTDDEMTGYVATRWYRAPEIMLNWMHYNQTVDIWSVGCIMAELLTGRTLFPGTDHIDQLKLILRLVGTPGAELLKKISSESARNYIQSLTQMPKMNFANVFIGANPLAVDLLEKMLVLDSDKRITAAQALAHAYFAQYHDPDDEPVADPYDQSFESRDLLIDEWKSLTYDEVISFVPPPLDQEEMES
Sequence of GSK 3α (P49840 whole entry): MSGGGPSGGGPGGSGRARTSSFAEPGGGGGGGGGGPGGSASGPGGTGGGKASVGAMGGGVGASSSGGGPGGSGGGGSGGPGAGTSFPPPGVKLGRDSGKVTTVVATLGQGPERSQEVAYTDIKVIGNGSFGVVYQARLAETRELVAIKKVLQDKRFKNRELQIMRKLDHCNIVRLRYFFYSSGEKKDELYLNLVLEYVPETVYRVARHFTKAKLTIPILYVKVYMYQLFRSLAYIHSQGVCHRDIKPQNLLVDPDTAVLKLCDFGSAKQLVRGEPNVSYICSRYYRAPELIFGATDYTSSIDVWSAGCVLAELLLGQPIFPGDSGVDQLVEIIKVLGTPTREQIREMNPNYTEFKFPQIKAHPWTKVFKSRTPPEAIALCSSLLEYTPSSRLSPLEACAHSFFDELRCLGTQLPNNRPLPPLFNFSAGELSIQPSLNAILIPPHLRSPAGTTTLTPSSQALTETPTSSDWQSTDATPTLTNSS

| IC50 [1] [nM] | IC50 (GSK 3α) [nM] | Structure (SMILES) | % β-catenin induction (d-U937 cells; test compound 1 μg/mL) [%] | % β-catenin induction (d-U937 cells; test compound 5 μg/mL) [%] | % β-catenin induction (d-U937 cells; test compound 10 μg/mL) [%] | IC50 (PBMCs [2]) [nM] | IC50 (PBMCs [3]) [nM] |
| --- | --- | --- | --- | --- | --- | --- | --- |
| 193 | > 9900 | COc1c(NC(=O)Nc2ccc(Oc3ccnc(Nc4ccccc4)c3)c3ccccc23)cc(C(C)(C)C)cc1[S+](C)[O-] (racemic) [Example 12, 1-(5-(tert-Butyl)-2-methoxy-3-(methylsulfinyl)phenyl)-3-(4-((2-(phenylamino)pyridin-4-yl)oxy)naphthalen-1-yl)urea] | −0.5 | 5.0 | 6.0 | 8.6 | 3.6 |
| 152 | 2620 | COc1cc(Nc2cc(Oc3ccc(NC(=O)Nc4cc(C(C)(C)C)cc(CC(N)=O)c4OC)c4ccccc34)ccn2)ccn1 [38(k), 2-(5-(tert-Butyl)-2-methoxy-3-(3-(4-((2-((2-methoxypyridin-4-yl)amino)pyridin-4-yl)oxy)naphthalen-1-yl)ureido)phenyl)acetamide] | 10.5 | 39.5 | 52.0 | 14.6 | 2.1 |
| 48 | 3380 | COc1cc(CO)cc(Nc2cc(Oc3ccc(NC(=O)Nc4cc(C(C)(C)C)cc(CC(N)=O)c4OC)c4ccccc34)ccn2)c1 [38(m), 2-(5-(tert-Butyl)-3-(3-(4-((2-((3-(hydroxymethyl)-5-methoxyphenyl)amino)pyridin-4-yl)oxy)naphthalen-1-yl)ureido)-2-methoxyphenyl)acetamide] | 3.0 | 23.0 | 37.0 | 7 | 2 |
| 43 | 1200 | COc1cncc(Nc2cc(Oc3ccc(NC(=O)Nc4cc(C(C)(C)C)cc(CC(N)=O)c4OC)c4ccccc34)ccn2)c1 [38(n), 2-(5-(tert-butyl)-2-methoxy-3-(3-(4-((2-((5-methoxypyridin-3-yl)amino)pyridin-4-yl)oxy)naphthalen-1-yl)ureido)phenyl)acetamide] | 2.0 | 21.0 | 23.5 | 14.1 | 1.4 |
| 9 | 1050 | COc1c(CC(N)=O)cc(C(C)(C)C)cc1NC(=O)Nc1ccc(Oc2ccnc(Nc3ccn(C)n3)c2)c2ccccc12 [38(o), 2-(5-(tert-Butyl)-2-methoxy-3-(3-(4-((2-((1-methyl-1H-pyrazol-3-yl)amino)pyridin-4-yl)oxy)naphthalen-1-yl)ureido)phenyl)acetamide] | 13.0 | 38.0 | 35.0 | 7.8 | 1.3 |
| 32 | 3660 | COc1cc(Nc2cc(Oc3ccc(NC(=O)Nc4cc(C(C)(C)C)cc([S+](C)[O-])c4OC)c4ccccc34)ccn2)ccc1C(=O)NCCN1CCOCC1 (stereo not drawn) [Example 72, 4-((4-((4-(3-(5-(tert-Butyl)-2-methoxy-3-(methylsulfinyl)phenyl)ureido)naphthalen-1-yl)oxy)pyridin-2-yl)amino)-2-methoxy-N-(2-morpholinoethyl)benzamide] | – | – | – | 7.5 | 2.1 |
| 31 | 1980 | COc1cc(Nc2cc(Oc3ccc(NC(=O)Nc4cc(C(C)(C)C)cc(CC(N)=O)c4OC)c4ccccc34)ccn2)ccc1C(=O)NCC(CO)(CO)CO [Example 73, 4-((4-((4-(3-(3-(2-Amino-2-oxoethyl)-5-(tert-butyl)-2-methoxyphenyl)ureido)naphthalen-1-yl)oxy)pyridin-2-yl)amino)-N-(3-hydroxy-2,2-bis(hydroxymethyl)propyl)-2-methoxybenzamide] | – | – | – | 6.3 | 1.5 |
| 20 | 2620 | COCCOCCOCCNC(=O)c1cc(Nc2cc(Oc3ccc(NC(=O)Nc4cc(C(C)(C)C)cc(CNC(=O)CN(C)C)c4OC)c4ccccc34)ccn2)cc(OC)c1 [Example 77, 3-((4-((4-(3-(5-(tert-Butyl)-3-((2-(dimethylamino)acetamido)methyl)-2-methoxyphenyl)ureido)naphthalen-1-yl)oxy)pyridin-2-yl)amino)-5-methoxy-N-(2-(2-(2-methoxyethoxy)ethoxy)ethyl)benzamide] | – | – | – | 2.3 | 0.9 |

Further lines, the compound ahead of its results:

| Structure (SMILES) | IC50 [1] [nM] | IC50 (GSK 3α) [nM] | % β-catenin induction (d-U937 cells; test compound 1 μg/mL) [%] | % β-catenin induction (d-U937 cells; test compound 5 μg/mL) [%] | % β-catenin induction (d-U937 cells; test compound 10 μg/mL) [%] | IC50 (PBMCs [2]) [nM] | IC50 (PBMCs [3]) [nM] |
| --- | --- | --- | --- | --- | --- | --- | --- |
| COCCOCCOCCOc1cc(Nc2cc(Oc3ccc(NC(=O)Nc4cc(C(C)(C)C)cc(CS(C)(=O)=O)c4OC)c4ccccc34)ccn2)cc(OC)c1 [15(a), 1-(5-(tert-butyl)-2-methoxy-3-((methylsulfonyl)methyl)phenyl)-3-(4-((2-((3-methoxy-5-(2-(2-(2-methoxyethoxy)ethoxy)ethoxy)phenyl)amino)pyridin-4-yl)oxy)naphthalen-1-yl)urea] | 177 | > 12200 | −4.0 | −5.0 | −3.0 | 27.2 | 3.6 |
| COc1c(NC(=O)Nc2ccc(Oc3ccnc(Nc4cccnc4)c3)c3ccccc23)cc(C(C)(C)C)cc1P(C)(C)=O [15(ad), 1-(5-(tert-butyl)-3-(dimethylphosphoryl)-2-methoxyphenyl)-3-(4-((2-(pyridin-3-ylamino)pyridin-4-yl)oxy)naphthalen-1-yl)urea] | 181 | 1600 | 12.0 | 36.0 | 49.0 | 16.2 | 3.7 |
| COc1cc(F)cc(Nc2cc(Oc3ccc(NC(=O)Nc4cc(C(C)(C)C)cc(P(C)(C)=O)c4OC)c4ccccc34)ccn2)c1 [15(an), 1-(5-(tert-butyl)-3-(dimethylphosphoryl)-2-methoxyphenyl)-3-(4-((2-((3-fluoro-5-methoxyphenyl)amino)pyridin-4-yl)oxy)naphthalen-1-yl)urea] | 344 | > 15200 | 1.5 | 11.5 | 13.5 | 6.2 | 2.7 |
| COc1c(NC(=O)Nc2ccc(Oc3ccnc(Nc4cnn(C)n4)n3)c3ccccc23)cc(C(C)(C)C)cc1P(C)(C)=O [15(x), 1-(5-(tert-butyl)-3-(dimethylphosphoryl)-2-methoxyphenyl)-3-(4-((2-((2-methyl-2H-1,2,3-triazol-4-yl)amino)pyrimidin-4-yl)oxy)naphthalen-1-yl)urea] | 219 | 4660 | 7.0 | 4.0 | 4.0 | 35.9 | 6.1 |
| COc1c(CC(N)=O)cc(C(C)(C)C)cc1NC(=O)Nc1ccc(Oc2ccnc(NCc3ccccn3)c2)c2ccccc12 [38(d), 2-(5-(tert-Butyl)-2-methoxy-3-(3-(4-((2-((pyridin-2-ylmethyl)amino)pyridin-4-yl)oxy)naphthalen-1-yl)ureido)phenyl)acetamide] | 13 | 2240 | 2.5 | 19.5 | 30.0 | 106 | 4.5 |
| COc1c(CC(N)=O)cc(C(C)(C)C)cc1NC(=O)Nc1ccc(Oc2ccnc(Nc3cc(C)cc(C)c3)c2)c2ccccc12 [38(f), 2-(5-(tert-Butyl)-3-(3-(4-((2-((3,5-dimethylphenyl)amino)pyridin-4-yl)oxy)naphthalen-1-yl)ureido)-2-methoxyphenyl)acetamide] | 226 | 14800 | 2.0 | 3.3 | 8.3 | 16.5 | 5.5 |
| CNC(=O)Cc1cc(C(C)(C)C)cc(NC(=O)Nc2ccc(Oc3ccnc(Nc4cccc(OC)c4)c3)c3ccccc23)c1OC [38(h), 2-(5-(tert-Butyl)-2-methoxy-3-(3-(4-((2-((3-methoxyphenyl)amino)pyridin-4-yl)oxy)naphthalen-1-yl)ureido)phenyl)-N-methylacetamide] | 123 | > 14600 | 1.5 | 4.0 | 6.0 | 17.7 | 2.7 |

Reference: US9890185B2, “Urea derivatives useful as kinase inhibitors” (Respivert Limited, priority 2013, dated 2018)
